Assay [1] deals with 5'(3')-deoxyribonucleotidase, cytosolic type (Homo sapiens, UniProt Q8TCD5). The assay is described as follows: Inhibition of N-terminal hexaHis-tagged human cytosolic 5'(3')-deoxynucleotidase using dUMP as substrate.
Assay [2] addresses 5'(3')-deoxyribonucleotidase, mitochondrial (Homo sapiens, UniProt Q9NPB1). The assay is described as follows: Inhibition of N-terminal hexaHis-tagged human mitochondrial 5'(3')-deoxynucleotidase using dUMP as substrate.
The species named for a further assay is Homo sapiens. Kind of assay: Selectivity ratio of Ki for N-terminal hexaHis-tagged human cytosolic 5'(3')-deoxynucleotidase to Ki for N-terminal hexaHis-tagged human mitochondrial 5'(3')-deoxynucleotidase.

5'(3')-deoxyribonucleotidase, mitochondrial, sequence (Q9NPB1 whole entry): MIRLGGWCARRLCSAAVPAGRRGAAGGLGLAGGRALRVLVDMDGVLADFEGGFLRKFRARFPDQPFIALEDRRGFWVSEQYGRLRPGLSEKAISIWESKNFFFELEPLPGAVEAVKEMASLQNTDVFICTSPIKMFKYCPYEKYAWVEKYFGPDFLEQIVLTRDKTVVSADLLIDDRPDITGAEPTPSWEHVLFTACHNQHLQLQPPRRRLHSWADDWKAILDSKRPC
5'(3')-deoxyribonucleotidase, cytosolic type, sequence (Q8TCD5 whole entry): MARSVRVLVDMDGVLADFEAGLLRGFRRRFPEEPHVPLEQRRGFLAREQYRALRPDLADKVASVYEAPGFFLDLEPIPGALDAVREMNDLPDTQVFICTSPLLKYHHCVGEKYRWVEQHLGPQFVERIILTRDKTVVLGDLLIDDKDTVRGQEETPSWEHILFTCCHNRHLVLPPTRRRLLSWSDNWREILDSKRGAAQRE

As to `O=c1[nH]c(=O)n([C@H]2C[C@H]3O[C@](c4ccccc4)(P(=O)(O)O)OC[C@H]3O2)cc1/C=C/P(=O)(O)O`, the Ki (in general, the dissociation constant of the complex between target and ligand, obtained from inhibition or displacement) in assay [1] was 21.7 µM; in assay [2], 0.128 µM. Also, the Ratio Ki in the assay listed under Homo sapiens turned out to be 20.

The values above are taken from ChEMBL document CHEMBL3751703, “Structure-based design of a bisphosphonate 5(3)-deoxyribonucleotidase inhibitor” (Medchemcomm, 2015).
